According to patent publication US20110065663A1, “ANTI-CANCER COMBINATION THERAPY” (Katholieke Universiteit Leuven, K.U. Leuven R&D, priority 2008, published 2011):
Read-outs that look alike come from different tables or passages of the source.

Experiments:
MCF-7/HYOR cells = assay: Nucleotide incorporation assay, MCF-7/HYOR compared with MCF-7 cells; assay type: cell-based, human; conditions: 1 μCi radiolabeled compound; FIG. 4
Protocol: MCF-7 and MCF-7/HYOR cells were seeded at 10,000 cells/cm. After 48 hours, cells were treated with 1 μCi of ^3H-labeled nucleoside with or without 10 μM TPi. 16 h later, the medium was removed and the cells were washed twice with PBS. Next, the cells were trypsinized, transferred to Eppendorf tubes and centrifuged for 10 minutes at 1,400 rpm. The pellet was resuspended in 1 ml absolute ice-cold methanol and kept on ice for 20 minutes. After centrifugation for 20 minutes at 13,000 rpm the pellet was washed twice with methanol, resuspended in methanol and transferred to scintillation vials containing 9 ml of Ready safe liquid scintillation reagent (‘Hisafe 3’, Perkin Elmer, Waltham, Mass.). The radioactivity was measured by a Liquid scintillation analyzer (2300 TR, Packard, Canberra, Australia).

MCF-7 cells = assay: Tumor cell proliferation assay, uninfected MCF-7 cells; assay type: cell-based, human; conditions: for IC50: uninfected MCF-7; for Ratio (1)/(2) MCF-7: IC50 in the absence of TPi to IC50 in the presence of TPi
[1] = Conversion of nucleosides in the medium of uninfected MCF-7 cells; assay type: biochemical, human; conditions: even after 24 hours of incubation; data not shown
Protocol: The TP activity of M. hyorhinis and the conversion of dThd, FdUrd, 5′DFUR and TFT to thymine, 5FU, 5FU or TF-thymine respectively were measured by high-pressure liquid chromatography (HPLC) analysis. MCF-7 and MCF-7/HYOR cells were seeded at a density of 20,000 cells/cm^2 in DMEM with 10% FBS. Four days later, the medium was collected and cleared by centrifugation at 1,400 rpm. For some experiments, the medium of MCF-7/HYOR cells was filtered using a 0.1 μm micro filter (Acrodisc syringe filter, PALL Corporation, East Hills, N.Y.) to remove the mycoplasmas from the medium. 600 μl of the medium was incubated with 200 μM of substrate (dThd, 5′DFUR, TFT or FdUrd) at 37° C. in the presence or absence of 10 μM TPi. […] Next, the samples were rapidly cooled on ice, exposed for 20 min to 200 μl ice-cold methanol and cleared by centrifugation at 15,000 rpm for 15 minutes. As a positive control, an enzyme activity assay with E. coli TP (Sigma) was performed. For this reaction, 0.025 U of TP were incubated with 200 μM of substrate in TP-buffer (10 mM Tris-HCl, pH 7.6, 1 mM EDTA, 2 mM potassium phosphate and 150 mM NaCl) in a total volume of 600 μl. Aliquots of 100 μl were withdrawn from the reaction mixture at several time points and treated as described above. The nucleosides were separated from their nucleobases on a reversed-phase RP-8 column (Merck, Darmstadt, Germany) and quantified by HPLC analysis (Aliance 2690, Waters, Milford, Mass.). The separation was performed by a linear gradient from 100% buffer B (50 mM NaH2PO4 and 5 mM heptane sulfonic acid, pH 3.2), to 20% buffer B and 80% acetonitrile. […] UV-based detection of all nucleosides was performed at 267 nm.

| Structure (SMILES) | Incorporation into nucleic acids, infected versus uninfected MCF-7 cells (in words) (MCF-7/HYOR cells) | IC50 (MCF-7 cells; Homo sapiens, MCF7, 96 h, no TPi, 4 days, read-out: IC50 MCF-7 As such) | IC50 (MCF-7 cells; Homo sapiens, MCF7, with 10 μM TPi, read-out: IC50 MCF-7 +TPi (10 μM)) | Ratio (1)/(2) MCF-7 (MCF-7 cells) | Conversion in the medium of uninfected MCF-7 cells [1] | Reduction of incorporation into nucleic acids in infected MCF-7/HYOR cells in comparison with uninfected MCF-7 cells (MCF-7/HYOR cells) | IC50 (MCF-7 cells; no TPi, 4 days, read-out: IC50 MCF-7 As such) | IC50 (MCF-7 cells; with 10 μM TPi, read-out: IC50 MCF-7 +TPi (10 μM)) |
| --- | --- | --- | --- | --- | --- | --- | --- | --- |
| O=c1[nH]c(=O)n([C@H]2C[C@H](O)[C@@H](CO)O2)cc1F [FdUrd, 5-fluoro-2′-deoxyuridine] | did not affect | 3 ± 2 nM | 3 ± 2 nM | 1.0 | no conversion | – | – | – |
| O=c1[nH]c(=O)n([C@H]2C[C@H](O)[C@@H](CO)O2)cc1C(F)(F)F [TFT, 5-trifluorothymidine] | – | – | – | 1.8 | no conversion | 40 fold | 390 ± 120 nM | 210 ± 110 nM |
